Measured values as given in PMC10993276 (ACS Omega, 2024).

Experiments:
[1] = tested on: β-glucosidase; assay: β-glucosidase inhibition assay; assay type: biochemical; conditions: final concentration of 100 μM in every well; pH 6.8, 37 °C
[2] = target: α-glucosidase (Saccharomyces cerevisiae, UniProt P53341); assay: α-glucosidase inhibition assay; assay type: biochemical
Sequence of α-glucosidase (P53341 whole entry): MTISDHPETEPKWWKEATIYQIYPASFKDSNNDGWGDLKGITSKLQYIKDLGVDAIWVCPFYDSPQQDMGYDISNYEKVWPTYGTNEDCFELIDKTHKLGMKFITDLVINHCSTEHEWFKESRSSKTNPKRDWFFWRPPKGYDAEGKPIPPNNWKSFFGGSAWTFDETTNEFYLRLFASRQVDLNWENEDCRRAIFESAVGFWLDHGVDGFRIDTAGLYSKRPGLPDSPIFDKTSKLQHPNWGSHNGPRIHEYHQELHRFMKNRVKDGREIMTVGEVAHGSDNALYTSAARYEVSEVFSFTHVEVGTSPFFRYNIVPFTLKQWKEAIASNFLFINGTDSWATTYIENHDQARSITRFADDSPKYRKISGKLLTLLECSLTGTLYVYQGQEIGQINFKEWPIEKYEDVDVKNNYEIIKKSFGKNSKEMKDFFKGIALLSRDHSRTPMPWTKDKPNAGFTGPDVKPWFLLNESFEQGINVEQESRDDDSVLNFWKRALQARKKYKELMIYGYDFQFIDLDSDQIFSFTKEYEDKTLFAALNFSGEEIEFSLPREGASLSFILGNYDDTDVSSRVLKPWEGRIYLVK

β-glucosidase % age inhibition [1] [%]	IC50 [2] [µM]	α-glucosidase inhibitory efficacy, folds stronger than acarbose ([2]; ratio of IC50 values versus acarbose) [folds]	SMILES
12.8	12.5 ± 0.22		O=C(N=c1scc(-c2ccc(F)cc2)n1-c1ccc(F)c(Cl)c1)c1ccccc1F [6j, N-(3-(3-Chloro-4-fluorophenyl)-4-(4-fluorophenyl)thiazol-2(3H)-ylidene)-2-fluorobenzamide]
63.7			C[C@H]1O[C@H](O[C@H]2[C@H](O)[C@@H](O)[C@@H](O[C@H]3[C@H](O)[C@@H](O)C(O)O[C@@H]3CO)O[C@@H]2CO)[C@H](O)[C@@H](O)[C@@H]1N[C@H]1C=C(CO)[C@@H](O)[C@H](O)[C@H]1O (some centres unmarked) [acarbose, reference compound]
18.6	1.47 ± 0.05	~24	O=C(N=c1scc(-c2ccc(F)cc2)n1-c1ccccc1F)c1cccc(F)c1 [6d, 3-Fluoro-N-(3-(2-fluorophenyl)-4-(4-fluorophenyl) Thiazol-2(3H)-ylidene)benzamide]
9.33	2.1 ± 0.06		COc1cc(C(=O)N=c2scc(-c3ccc(F)cc3)n2-c2ccc(F)cc2)cc(OC)c1OC [6e, N-(3,4-Bis(4-fluorophenyl)thiazol-2(3H)-ylidene)-3,4,5-trimethoxybenzamide]
24.2	3.23 ± 0.07		O=C(N=c1scc(-c2ccc(F)cc2)n1-c1ccccc1F)c1ccccc1Cl [6b, 2-Chloro-N-(3-(2-fluorophenyl)-4-(4-fluorophenyl)thiazol-2(3H)-ylidene)benzamide]
15.4	8.31 ± 0.13		COc1cc(C(=O)N=c2scc(-c3ccc(F)cc3)n2-c2cccc(F)c2)cc(OC)c1OC [6i, N-(3-(3-Fluorophenyl)-4-(4-fluorophenyl)thiazol-2(3H)-ylidene)-3,4,5-trimethoxybenzamide]
36.3	2.98 ± 0.04		O=C(N=c1scc(-c2ccc(F)cc2)n1-c1ccccc1F)c1ccccc1F [6c, 2-Fluoro-N-(3-(2-fluorophenyl)-4-(4-fluorophenyl)thiazol-2(3H)-ylidene)benzamide]
20.1	3.16 ± 0.15		O=C(N=c1scc(-c2ccc(F)cc2)n1-c1ccc(F)c(Cl)c1)c1ccc(F)cc1 [6g, N-(3-(3-Chloro-4-fluorophenyl)-4-(4-fluorophenyl)thiazol-2(3H)-ylidene)-4-fluorobenzamide]
17.5	4.33 ± 0.19		O=C(N=c1scc(-c2ccc(F)cc2)n1-c1ccc(F)cc1)c1ccccc1Cl [6h, N-(3,4-Bis(4-fluorophenyl) Thiazol-2(3H)-ylidene)-2-chlorobenzamide]
11.2	18.2 ± 0.02		COc1cc(C(=O)N=c2scc(-c3ccc(F)cc3)n2-c2ccc(F)c(Cl)c2)cc(OC)c1OC [6a, N-(3-(3-Chloro-4-fluorophenyl)-4-(4-fluorophenyl)thiazol-2(3H)-ylidene)-3,4,5-trimethoxybenzamide]
